Structures can show the parent of a compound that is named as a salt.
Legend:
plasma esterases [1] = experiment: Inhibition of CDD hydrolysis in human plasma by esterase inhibitors; assay type: biochemical; conditions: for % inhibition of CDD hydrolysis: CDD 1.5 μM, 37 °C, 5 min
plasma esterases [2] = experiment: Inhibition of CDD hydrolysis in rat plasma by esterase inhibitors; assay type: biochemical; conditions: for % inhibition of CDD hydrolysis: CDD 1.5 μM, 37 °C, 5 s
plasma CES = conditions: rat plasma, inhibitor 10 mM; cited from earlier work
plasma esterases [3] = experiment: Inhibition of CDD hydrolysis in dog plasma by esterase inhibitors; assay type: biochemical, beagle dog; conditions: for % inhibition of CDD hydrolysis: CDD 1.5 μM, 37 °C, 15 min

inhibition of CDD hydrolysis (in words) (plasma esterases [2]; concentration not given)	SMILES	% inhibition of CDD hydrolysis (plasma esterases [1]; inhibitor 0.1 mM)	% inhibition of CDD hydrolysis (plasma esterases [1]; inhibitor 1 mM)	% inhibition of CDD hydrolysis (plasma esterases [2]; inhibitor 0.1 mM)	% inhibition of CDD hydrolysis (plasma esterases [2]; inhibitor 1 mM)	% inhibition of CDD hydrolysis (plasma esterases [3]; inhibitor 0.1 mM)	% inhibition of CDD hydrolysis (plasma esterases [3]; inhibitor 1 mM)	inhibition of CDD hydrolysis (in words) (plasma esterases [1]; concentration not given)	inhibition of CDD hydrolysis (in words) (plasma esterases [3]; concentration not given)	also measured
–	O=[N+]([O-])c1ccc(OP(=O)(O)Oc2ccc([N+](=O)[O-])cc2)cc1 [BNPP, Bis(4-nitrophenyl) phosphate]	<10%	42.2 ± 6.7%	83.0 ± 8.9%	97.0 ± 7.7%	16.6 ± 8.2%	63.6 ± 1.8%	–	–	inhibition of CDD hydrolysis (in words) (plasma esterases [1]; inhibitor 1 mM): partial inhibition; effect on ex vivo hydrolysis of CDD (plasma CES): inhibited
did not prevent	O=C(O)c1cc(SSc2ccc([N+](=O)[O-])c(C(=O)O)c2)ccc1[N+](=O)[O-] [DTNB, 5,5′-dithiobis-2-nitrobenzoic acid]	<10%	52.0 ± 1.5%	<10%	<10%	<10%	47.8 ± 0.83%	–	–	inhibition of CDD hydrolysis (in words) (plasma esterases [1]; inhibitor 1 mM): moderate inhibition; inhibition of CDD hydrolysis (in words) (plasma esterases [3]; inhibitor 1 mM): moderate inhibition
did not prevent	O=C([O-])CN(CCN(CC(=O)[O-])CC(=O)O)CC(=O)O.[Na+].[Na+] [EDTA, Ethylenediaminetetraacetic acid disodium]	–	–	–	–	–	–	no inhibition	no inhibition	% inhibition of CDD hydrolysis (plasma esterases [1]; inhibitor 5 mM): <10%; % inhibition of CDD hydrolysis (plasma esterases [1]; inhibitor 10 mM): <10%; % inhibition of CDD hydrolysis (plasma esterases [2]; inhibitor 5 mM): <10%; % inhibition of CDD hydrolysis (plasma esterases [2]; inhibitor 10 mM): <10%; % inhibition of CDD hydrolysis (plasma esterases [3]; inhibitor 5 mM): <10%; % inhibition of CDD hydrolysis (plasma esterases [3]; inhibitor 10 mM): <10%
–	O=C(O)CN(CCOCCOCCN(CC(=O)O)CC(=O)O)CC(=O)O [EGTA, ethyleneglycol-bis(2-aminoethylether)-tetraacetic acid]	–	–	–	–	–	–	partially inhibited	fewer than those of the aforementioned esterase inhibitors	% inhibition of CDD hydrolysis (plasma esterases [1]; inhibitor 5 mM): 23.2 ± 11.4%; % inhibition of CDD hydrolysis (plasma esterases [1]; inhibitor 10 mM): 26.5 ± 3.6%; % inhibition of CDD hydrolysis (plasma esterases [2]; inhibitor 5 mM): <10%; % inhibition of CDD hydrolysis (plasma esterases [2]; inhibitor 10 mM): <10%; % inhibition of CDD hydrolysis (plasma esterases [3]; inhibitor 5 mM): 17.3 ± 6.1%; % inhibition of CDD hydrolysis (plasma esterases [3]; inhibitor 10 mM): 19.9 ± 8.0%
did not prevent	CNC(=O)Oc1ccc2c(c1)[C@]1(C)CCN(C)[C@@H]1N2C [Eserine, eserine hemisulfate salt]	–	–	–	–	–	–	no inhibition	no inhibition	% inhibition of CDD hydrolysis (plasma esterases [1]; inhibitor 10 μM): <10%; % inhibition of CDD hydrolysis (plasma esterases [1]; inhibitor 100 μM): <10%; % inhibition of CDD hydrolysis (plasma esterases [2]; inhibitor 10 μM): <10%; % inhibition of CDD hydrolysis (plasma esterases [2]; inhibitor 100 μM): <10%; % inhibition of CDD hydrolysis (plasma esterases [3]; inhibitor 10 μM): <10%; % inhibition of CDD hydrolysis (plasma esterases [3]; inhibitor 100 μM): <10%
–	CC(C)NP(=O)(NC(C)C)OP(=O)(NC(C)C)NC(C)C [Iso-OMPA, tetraisopropyl pyrophosphoramide]	<10%	<10%	99.5 ± 11.2%	108.3 ± 5.2%	16.9 ± 7.1%	17.6 ± 6.7%	no inhibition	fewer than those of the aforementioned esterase inhibitors	% inhibition of CDD hydrolysis (plasma esterases [2]; inhibitor 0.1 mM, listed as iso-OMPA): > 80%
–	[F-].[Na+] [NaF, Sodium fluoride]	–	–	–	–	–	–	no inhibition	no inhibition	% inhibition of CDD hydrolysis (plasma esterases [1]; inhibitor 5 mM): <10%; % inhibition of CDD hydrolysis (plasma esterases [1]; inhibitor 10 mM): <10%; % inhibition of CDD hydrolysis (plasma esterases [2]; inhibitor 5 mM): <10%; inhibition of CDD hydrolysis (in words) (plasma esterases [2]; inhibitor 10 mM): partially prevented; % inhibition of CDD hydrolysis (plasma esterases [2]; inhibitor 10 mM): 24.4 ± 7.1%; % inhibition of CDD hydrolysis (plasma esterases [3]; inhibitor 5 mM): <10%; % inhibition of CDD hydrolysis (plasma esterases [3]; inhibitor 10 mM): <10%
–	O=S(=O)(F)Cc1ccccc1 [PMSF, Phenylmethanesulfonyl fluoride]	<10%	<10%	<10%	96.0 ± 9.2%	<10%	29.6 ± 5.3%	no inhibition	–	effect on ex vivo hydrolysis of CDD (plasma CES): inhibited
–	Cl.NCCc1ccc(S(=O)(=O)F)cc1 [Pefabloc® SC, 4-(2-aminoethyl-)benzenesulphonylfloride hydrochloride]	<10%	<10%	19.4 ± 2.1%	99.8 ± 7.9%	<10%	25.8 ± 3.1%	no inhibition	–	–

SMILES	inhibition of CDD hydrolysis (in words) (plasma esterases [2]; concentration not given)	% inhibition of CDD hydrolysis (plasma esterases [1]; inhibitor 0.1 mM)	% inhibition of CDD hydrolysis (plasma esterases [1]; inhibitor 1 mM)	% inhibition of CDD hydrolysis (plasma esterases [2]; inhibitor 0.1 mM)	% inhibition of CDD hydrolysis (plasma esterases [2]; inhibitor 1 mM)	% inhibition of CDD hydrolysis (plasma esterases [3]; inhibitor 0.1 mM)	% inhibition of CDD hydrolysis (plasma esterases [3]; inhibitor 1 mM)	inhibition of CDD hydrolysis (in words) (plasma esterases [1]; concentration not given)	inhibition of CDD hydrolysis (in words) (plasma esterases [3]; concentration not given)	also measured
C=CC[N+](C)(C)c1ccc(CCC(=O)CCc2ccc([N+](C)(C)CC=C)cc2)cc1.[Br-].[Br-] [BW284c51, 1,5-bis(4-allyldimethylammoniumphenyl)pentan-3-one dibromide]	did not prevent	–	–	–	–	–	–	no inhibition	no inhibition	% inhibition of CDD hydrolysis (plasma esterases [1]; inhibitor 10 μM): <10%; % inhibition of CDD hydrolysis (plasma esterases [1]; inhibitor 100 μM): <10%; % inhibition of CDD hydrolysis (plasma esterases [2]; inhibitor 10 μM): <10%; % inhibition of CDD hydrolysis (plasma esterases [2]; inhibitor 100 μM): <10%; % inhibition of CDD hydrolysis (plasma esterases [3]; inhibitor 10 μM): <10%; % inhibition of CDD hydrolysis (plasma esterases [3]; inhibitor 100 μM): <10%
Cc1ccc(S(=O)(=O)N[C@@H](CCCCN)C(=O)CCl)cc1.Cl [TLCK, N-α-tosyl-L-lysine chloromethylketone hydrochloride]	did not prevent	<10%	<10%	<10%	<10%	<10%	17.0 ± 10.3%	no inhibition	–	–

— PMC9060607 (RSC Advances, 2019)
